{"source": "paper PMC10541198", "about": "“Specific quinone reductase 2 inhibitors reduce metabolic burden and reverse Alzheimer’s disease phenotype in mice” (The Journal of Clinical Investigation, 2023)", "tested_on": "C57BL/6 mice", "experiment": "Delay fear conditioning, microinjection to hippocampal CA1", "type": "in vivo, mouse", "experimental": "In order to evaluate the efficacy of some of the leading QR2is in vivo, we carried out double-blind experiments using 2 different modalities (Supplemental Methods), measuring memory that is dependent on different brain areas. First, cortical memory was tested using incidental novel taste learning (see Methods), in which an unfamiliar, but palatable and safe, taste is given for the first time, and the memory for this newly learned taste is then assessed 2 days later. This is done by measuring the volume of the taste consumed upon subsequent exposure to it ([32]) (Figure 4A). […] Next, hippocampal-dependent learning was evaluated using delay fear conditioning (DFC; see Methods) ([33]). Mice were cannulated to the CA1 region of the hippocampus and were microinjected with YB-537 (1 μL of 5 μM, Figure 4, D and H) or vehicle. […] In order to evaluate any possible effect of acute QR2i microinjection on metabolic stress in the mouse brain, ISR activation was measured by quantifying total and phosphorylated eukaryotic initiation factor 2 α (eIF2α) levels (Supplemental Figure 3A) and lipid peroxidation product, 4-hydroxynonenal (4-HNE; Supplemental Figure 3B), by immunoblot 3 hours after the injection.\nDFC was done as previously described ([7]). Briefly, mice were given 2 minutes to explore the conditioning chambers, during which baseline freezing was measured. Then, a 20 second, 4 kHz, 80 dB tone was given, coterminating with the start of a 2 second, 0.5 mA foot-shock. This was repeated twice more in 1 minute intervals. Following the third and last bout, 1 minute was given before the animals were removed from the chambers. The next day, the animals were returned to the room under the same conditions and were placed back into the chambers, and freezing to the context was measured over the course of 5 minutes. The next day, the mice were brought to unfamiliar conditioning rooms and chambers. In this unfamiliar context, the protocol from the first day was repeated, except without the foot shocks. Freezing for the cue was recorded, starting from the sounding of the first tone. All measurements were taken with a Sentec stc-tb33usb-at camera, and analysis was done with Freeze Frame software (Actimetrics). […]\nMice were anesthetized under 2% isoflurane, using an induction box (HME109, Highland Medical Equipment). They were placed in a stereotaxic device (Kopf Stereotaxic Alignment System, model 1900) under continuous 1% isoflurane anesthesia. Guide cannulas were implanted bilaterally to CA1 (from bregma: −1.9 mm AP, ±1.4 mm, −1.6 mm DV), cemented to the skull and fitted with 28- gauge dummy cannulas e xt e ndi ng 0.2 mm beyond the tip of the 1.2 mm guide cannulas. The mice were allowed at least 7 days of r ecover y before e xpe r im e nt at ion. The QR2 inhibitor YB-537 was dissolved in saline (0.9%). A total of 1μL of 5μM of YB-537 or vehicle was infused bilaterally to CA1, via a 28- gauge infusion cannula projecting 0.4 mm (drug delivery depth bregma: […]) beyond the guide cannula, connected by polyethylene tubing to a 10μL s yr i nge (Hamilton) ove r the course of 1m i n. The injection cannula was […]\nkept for 60s inside the guide cannula in order prevent osmotic seepage of the doses upward through the cannula tract. Twenty minutes following the injection, animals underwent delay fear conditioning.\nFollowing experimentation, animals were killed, brains were sliced in coronal sections, and cannula implantation was validated by imaging.\nIncidental Tast e Learning […]\nneophobia is highly conserved across species, as it is the fi rst line of defense against potentially poisonous, newly discovered foodstuffs.\nHowever, once a memory for the taste is formed and no associated ill effect is learned, the taste becomes familiar and the animal consumes it more freely, especially if it is a pleasant, palatable taste. Thus, the stronger the memory for the safe, palatable taste, the more likely the animal will consume it(32, 56). […]", "key": {"[1]": {"settings": "5 μM to CA1, in % (unit assumed)"}}, "note": "Several values for one entry are separate records, joined by “and”; a condition that tells them apart may be missing. Equal entries are not always repeated.", "data": [{"smiles": "Cc1ccc(-c2cn3cccc(C)c3n2)cc1S(=O)(=O)N1CCNCC1", "note": "[YB-537]", "values": [{"measurement": "inter-trial learning during conditioning", "setting": "5 μM to CA1, n=6", "result": "normal inter-trial learning"}, {"measurement": "freezing during conditioning (individual mice)", "setting": "5 μM to CA1, Baseline, in % (unit assumed)", "result": "2.45 and 0.22 and 3.23 and 4.78 and 9.01 and 1.89"}, {"measurement": "freezing during conditioning (individual mice)", "setting": "5 μM to CA1, CS/US 1, in % (unit assumed)", "result": "13.08 and 8.81 and 18.16 and 10.01 and 26.70 and 2.54"}, {"measurement": "freezing during conditioning (individual mice)", "setting": "5 μM to CA1, CS/US 2, in % (unit assumed)", "result": "20.03 and 15.78 and 28.12 and 17.97 and 27.02 and 2.19"}, {"measurement": "freezing during conditioning (individual mice)", "setting": "5 μM to CA1, CS/US 3, in % (unit assumed)", "result": "24.88 and 20.00 and 35.58 and 21.40 and 33.02 and 2.33"}, {"measurement": "freezing in response to the context (individual mice)", "setting": "[1]", "result": "59.92 and 49.69 and 57.37 and 25.70 and 41.84 and 33.92"}, {"measurement": "freezing in response to the cue (individual mice)", "setting": "[1]", "result": "51.89 and 48.39 and 35.02 and 23.60 and 5.68 and 24.28"}]}]}
